Assay results as given in patent US9499550B2 (BRISTOL-MYERS SQUIBB COMPANY, priority 2012, dated 2016).
Where two headings read alike, the source gives them in different places.

How the values were obtained:
[1] = test system: HCV genotype 1b (Con1) replicon in HUH-7 cells; assay: HCV replicon luciferase reporter assay, genotype 1b; type: cell-based; conditions: Hepatitis C virus, Huh-7, 72 h, 3 days incubation
Procedure, shortened: (§1)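 Replicon inhibition for both genotypes was measured as Renilla luciferase signal (EnduRen, 7.5 μM final, 2 h) after 3-day, 37° C exposure of replicon-bearing HUH-7 cells in 4% FCS DMEM, 0.5% DMSO. The 1b construct carries S1179I; the 1a H77 construct carries P1496L and S2204I. Twenty-point, 3-fold dilutions were fitted four-parametrically for EC50, and CC50 was taken from multiplexed Cell Titer-Blue.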

[2] = test system: HCV genotype 1a (H77 strain) replicon in HUH-7 cells; assay: HCV replicon luciferase reporter assay, genotype 1a; type: cell-based; conditions: Hepatitis C virus, Huh-7, 72 h, 3 days incubation
Procedure, shortened: as §1

[3] = HCV genotype 1b replicon luciferase, read-out: LE_1b (EC50, range)
[4] = HCV genotype 1a replicon luciferase, read-out: LE_1a (EC50, range)
[5] = HCV genotype 1b replicon luciferase assay, range class, read-out: LE_1b (EC50, range)
[6] = HCV genotype 1a replicon luciferase assay, range class, read-out: LE_1a (EC50, range)
[7] = GETYPE1B, HCV genotype 1b replicon luciferase, read-out: LE_1b (EC50, range)
[8] = GETYPE1A, HCV genotype 1a replicon luciferase, read-out: LE_1a (EC50, range)

## C[C@@H]1CC/C=C\[C@@H]2C[C@@]2(C(=O)NS(=O)(=O)C2(C)CC2)NC(=O)[C@@H]2C[C@@H](Oc3nc4c(c5ccccc35)CCCO4)CN2C(=O)[C@@H](NC(=O)OC(C)(C)C(F)(F)F)[C@H](C)C1 [Compound 6046, 1,1,1-trifluoro-2-methylpropan-2-yl((2R,6S,7R,9R,13aS,14aR,16aS,Z)-2-((2,3-dihydro-1H-pyrano[2,3-c]isoquinolin-6-yl)oxy)-7,9-dimethyl-14a-(((1-methylcyclopropyl)sulfonyl)carbamoyl)-5,16-dioxo-1,2,3,5,6,7,8,9,10,11,13a,14,14a,15,16,16a-hexadecahydrocyclopropa[e]pyrrolo[1,2-a][1,4]diazacyclopentadecin-6-yl)carbamate]
[1]; [3]
  EC50: 0.51 to 1 nM
[2]; [4]
  EC50: 1.01 to 5 nM

## COc1cnc(O[C@@H]2C[C@H]3C(=O)N[C@]4(C(=O)NS(=O)(=O)C5(C)CC5)C[C@H]4/C=C\CC[C@@H](C)C[C@@H](C)[C@H](NC(=O)OC(C)(C)C(F)(F)F)C(=O)N3C2)c2ccccc12 [Compound 4052]
[1]; [3]
  EC50: < 5.46 nM
[2]; [4]
  EC50: < 5.46 nM

## COc1ccc2c(O[C@@H]3C[C@H]4C(=O)N[C@]5(C(=O)NS(=O)(=O)C6CC6)C[C@H]5/C=C\CC[C@@H](C)C[C@@H](C)[C@H](NC(=O)OC(C)(C)C(F)(F)F)C(=O)N4C3)nc(-c3ccc(OC)c(F)c3)cc2c1 [Compound 3056, 1,1,1-trifluoro-2-methylpropan-2-yl((2R,6S,7R,9R,13aS,14aR,16aS,Z)-14a-((cyclopropylsulfonyl)carbamoyl)-2-((3-(3-fluoro-4-methoxyphenyl)-6-methoxyisoquinolin-1-yl)oxy)-7,9-dimethyl-5,16-dioxo-1,2,3,5,6,7,8,9,10,11,13a,14,14a,15,16,16a-hexadecahydrocyclopropa[e]pyrrolo[1,2-a][1,4]diazacyclopentadecin-6-yl)carbamate]
[1]; [5]
  EC50: < 5.46 nM
[2]; [6]
  EC50: < 5.46 nM

## C[C@@H]1CC/C=C\[C@@H]2C[C@@]2(C(=O)NS(=O)(=O)C2(CF)CC2)NC(=O)[C@@H]2C[C@@H](Oc3nccc4c5c(ccc34)OCCO5)CN2C(=O)[C@@H](NC(=O)OC(C)(C)C(C)(F)F)[C@H](C)C1 [Compound 5342]
[1]; [7]
  EC50: < 5.46 nM
[2]; [8]
  EC50: < 5.46 nM

## COc1ccc2c(O[C@@H]3C[C@H]4C(=O)N[C@]5(C(=O)NS(=O)(=O)C6(CF)CC6)C[C@H]5/C=C\CC[C@@H](C)C[C@@H](C)[C@H](NC(=O)OC(C)(C)C)C(=O)N4C3)nc(N(C)C)cc2c1 [Compound 3123, tert-butyl ((2R,6S,7R,9R,13aS,14aR,16aS,Z)-2-((3-(dimethylamino)-6-methoxyisoquinolin-1-yl)oxy)-14a-(((1-(fluoromethyl)cyclopropyl)sulfonyl)carbamoyl)-7,9-dimethyl-5,16-dioxo-1,2,3,5,6,7,8,9,10,11,13a,14,14a,15,16,16a-hexadecahydrocyclopropa[e]pyrrolo[1,2-a][1,4]diazacyclopentadecin-6-yl)carbamate]
[1]; [5]
  EC50: 4.82 to 103 nM
[2]; [6]
  EC50: 4.82 to 103 nM

## CC[C@@H]1C[C@H](C)CC/C=C\[C@@H]2C[C@@]2(C(=O)NS(=O)(=O)C2CC2)NC(=O)[C@@H]2C[C@@H](Oc3ncc(N4CCOCC4)c4cc(OC)c(F)cc34)CN2C(=O)[C@H]1NC(=O)OC(C)(C)C [Compound 4240, tert-butyl ((2R,6S,7R,9R,13aS,14aR,16aS,Z)-14a-((cyclopropylsulfonyl)carbamoyl)-7-ethyl-2-((7-fluoro-6-methoxy-4-morpholinoisoquinolin-1-yl)oxy)-9-methyl-5,16-dioxo-1,2,3,5,6,7,8,9,10,11,13a,14,14a,15,16,16a-hexadecahydrocyclopropa[e]pyrrolo[1,2-a][1,4]diazacyclopentadecin-6-yl)carbamate]
[1]; HCV genotype 1b replicon luciferase, read-out: LE_1b (EC50)
  EC50: 1.09 nM
[1]; [3]
  EC50: 1.01 to 5 nM
[2]; HCV genotype 1a replicon luciferase, read-out: LE_1a (EC50)
  EC50: 1.23 nM
[2]; [4]
  EC50: 1.01 to 5 nM

## COc1cnc(O[C@@H]2C[C@H]3C(=O)N[C@]4(C(=O)NS(=O)(=O)C5(CF)CC5)C[C@H]4/C=C\CC[C@H](C)C[C@@H](C)[C@H](NC(=O)OC4(C(C)C)COC4)C(=O)N3C2)c2ccccc12 [Compound 1053, 3-isopropyloxetan-3-yl ((2R,6S,7R,9S,13aS,14aR,16aS,Z)-14a-(((1-(fluoromethyl)cyclopropyl)sulfonyl)carbamoyl)-2-((4-methoxyisoquinolin-1-yl)oxy)-7,9-dimethyl-5,16-dioxo-1,2,3,5,6,7,8,9,10,11,13a,14,14a,15,16,16a-hexadecahydrocyclopropa[e]pyrrolo[1,2-a][1,4]diazacyclopentadecin-6-yl)carbamate]
[1]; [5]
  EC50: 4.82 to 103 nM
[2]; [6]
  EC50: 4.82 to 103 nM

## COc1ccc2c(O[C@@H]3C[C@H]4C(=O)N[C@]5(C(=O)NS(=O)(=O)C6(CF)CC6)C[C@H]5/C=C\CC[C@@H](C)C[C@@H](C)[C@H](NC(=O)OC(C)(C)C(F)(F)F)C(=O)N4C3)nccc2c1 [Compound 4151]
[1]; [7]
  EC50: < 5.46 nM
[2]; [8]
  EC50: < 5.46 nM

## [2H]C([2H])([2H])C(OC(=O)N[C@@H]1C(=O)N2C[C@H](Oc3nc(N4CCOCC4)cc4cc(OC)ccc34)C[C@H]2C(=O)N[C@]2(C(=O)NS(=O)(=O)C3CC3)C[C@H]2/C=C\CC[C@@H](C)C[C@H]1C)(C([2H])([2H])[2H])C(F)(F)F [Compound 3101, 1,1,1,3,3,3-hexadeutero-2-(trifluoromethyl)propan-2-yl((2R,6S,7R,9R,13aS,14aR,16aS,Z)-14a-((cyclopropylsulfonyl)carbamoyl)-2-((6-methoxy-3-morpholinoisoquinolin-1-yl)oxy)-7,9-dimethyl-5,16-dioxo-1,2,3,5,6,7,8,9,10,11,13a,14,14a,15,16,16a-hexadecahydrocyclopropa[e]pyrrolo[1,2-a][1,4]diazacyclopentadecin-6-yl)carbamate]
[1]; [5]
  EC50: < 5.46 nM
[2]; [6]
  EC50: < 5.46 nM

## C[C@H]1CC/C=C\[C@@H]2C[C@@]2(C(=O)NS(=O)(=O)C2CC2)NC(=O)[C@@H]2C[C@@H](Oc3ncc(OC4CC4)c4ccccc34)CN2C(=O)[C@@H](NC(=O)OC(C)(C)C(F)(F)F)[C@H](C)C1 [Compound 25, 1,1,1-trifluoro-2-methylpropan-2-yl((2R,6S,7R,9S,13aS,14aR,16aS,Z)-2-((4-cyclopropoxyisoquinolin-1-yl)oxy)-14a-((cyclopropylsulfonyl)carbamoyl)-7,9-dimethyl-5,16-dioxo-1,2,3,5,6,7,8,9,10,11,13a,14,14a,15,16,16a-hexadecahydrocyclopropa[e]pyrrolo[1,2-a][1,4]diazacyclopentadecin-6-yl)carbamate]
[1]; [5]
  EC50: 4.82 to 103 nM
[2]; [6]
  EC50: 4.82 to 103 nM

## COc1cc2cc(-c3ccc(OC(C)C)cc3)nc(O[C@@H]3C[C@H]4C(=O)N[C@]5(C(=O)NS(=O)(=O)C6CC6)C[C@H]5/C=C\CC[C@H](C)C[C@@H](C)[C@H](NC(=O)OC(C)(C)C)C(=O)N4C3)c2cc1F [Compound 3181, tert-butyl ((2R,6S,7R,9S,13aS,14aR,16aS,Z)-14a-((cyclopropylsulfonyl)carbamoyl)-2-((7-fluoro-3-(4-isopropoxyphenyl)-6-methoxyisoquinolin-1-yl)oxy)-7,9-dimethyl-5,16-dioxo-1,2,3,5,6,7,8,9,10,11,13a,14,14a,15,16,16a-hexadecahydrocyclopropa[e]pyrrolo[1,2-a][1,4]diazacyclopentadecin-6-yl)carbamate]
[1]; [5]
  EC50: < 5.46 nM
[2]; [6]
  EC50: 4.82 to 103 nM

## COc1ccc2c(O[C@@H]3C[C@H]4C(=O)N[C@]5(C(=O)NS(=O)(=O)C6(CF)CC6)C[C@H]5/C=C\CC[C@H](C)C[C@@H](C)[C@H](NC(=O)OC(C)(C)C)C(=O)N4C3)nc(N3CCCC3)nc2c1 [Compound 3013, tert-butyl ((2R,6S,7R,9S,13aS,14aR,16aS,Z)-14a-(((1-(fluoromethyl)cyclopropyl)sulfonyl)carbamoyl)-2-((7-methoxy-2-(pyrrolidin-1-yl)quinazolin-4-yl)oxy)-7,9-dimethyl-5,16-dioxo-1,2,3,5,6,7,8,9,10,11,13a,14,14a,15,16,16a-hexadecahydrocyclopropa[e]pyrrolo[1,2-a][1,4]diazacyclopentadecin-6-yl)carbamate]
[1]; [5]
  EC50: 4.82 to 103 nM
[2]; [6]
  EC50: 4.82 to 103 nM

## COc1cc(F)cc2c(O[C@@H]3C[C@H]4C(=O)N[C@]5(C(=O)NS(=O)(=O)C6CC6)C[C@H]5/C=C\CC[C@H](C)C[C@@H](C)[C@H](NC(=O)OCC5(C)CC5)C(=O)N4C3)nccc12 [Compound 3171, (1-methylcyclopropyl)methyl ((2R,6S,7R,9S,13aS,14aR,16aS,Z)-14a-((cyclopropylsulfonyl)carbamoyl)-2-((7-fluoro-5-methoxyisoquinolin-1-yl)oxy)-7,9-dimethyl-5,16-dioxo-1,2,3,5,6,7,8,9,10,11,13a,14,14a,15,16,16a-hexadecahydrocyclopropa[e]pyrrolo[1,2-a][1,4]diazacyclopentadecin-6-yl)carbamate]
[1]; [5]
  EC50: < 5.46 nM
[2]; [6]
  EC50: 4.82 to 103 nM

## CC[C@@H]1C[C@H](C)CC/C=C\[C@@H]2C[C@@]2(C(=O)NS(=O)(=O)C2(CF)CC2)NC(=O)[C@@H]2C[C@@H](Oc3nccc4cc(OC)ccc34)CN2C(=O)[C@H]1NC(=O)OC(C)(C)C [Compound 4204, tert-butyl (2R,6S,7R,9R,13aS,14aR,16aS,Z)-7-ethyl-14a-(1-(fluoromethyl)cyclopropylsulfonylcarbamoyl)-2-(6-methoxyisoquinolin-1-yloxy)-9-methyl-5,16-dioxo-1,2,3,5,6,7,8,9,10,11,13a,14,14a,15,16,16a-hexadecahydrocyclopropa[e]pyrrolo[1,2-a][1,4]diazacyclopentadecin-6-ylcarbamate]
[1]; [3]
  EC50: < 5.46 nM
[2]; [4]
  EC50: < 5.46 nM
